Legend:
Assay type in all cases: in vivo
[1] = test system: Solanum nigrum (SOLNI); assay: Post-emergence biological efficacy, glasshouse pot test; settings: 312 h
Summary of the method: (§1)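 Plants were sown in standard soil and grown 8 days in a glasshouse (24/16° C. day/night, 14 hours light, 65% humidity), then sprayed post-emergence at 1000 or 250 g/ha from acetone/water (50:50) with 0.5% Tween 20. Damage was scored visually after 13 days (0 = none, 100 = total).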

[2] = test system: Alopecurus myosuroides (ALOMY); assay: as above; settings: 312 h
Summary of the method: as §1

[3] = test system: Amaranthus retoflexus (AMARE); assay: as above; settings: Amaranthus retroflexus, 312 h
Summary of the method: as §1

[4] = test system: Setaria faberi (SETFA); assay: as above; settings: 312 h
Summary of the method: as §1

[5] = test system: Ipomea hederaceae (IPOHE); assay: as above; settings: Ipomoea hederacea, 312 h
Summary of the method: as §1

[6] = test system: Echinochloa crus-galli (ECHCG); assay: as above; settings: 312 h
Summary of the method: as §1

[7] = test system: Solanum nigrum (SOLNI); assay: Pre-emergence biological efficacy, glasshouse pot test; settings: 312 h
Summary of the method: (§2)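 Seeds sown in standard soil in pots, held one day in glasshouse (24/16 °C day/night, 14 h light, 65% humidity), then sprayed with aqueous solution from acetone/water (50:50) formulation with 0.5% Tween 20 at 1000 or 250 g/ha. Damage scored after 13 days (0 = none, 100 = total).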

[8] = test system: Alopecurus myosuroides (ALOMY); assay: as above; settings: 312 h
Summary of the method: as §2

[9] = test system: Amaranthus retoflexus (AMARE); assay: as above; settings: Amaranthus retroflexus, 312 h
Summary of the method: as §2

[10] = test system: Setaria faberi (SETFA); assay: as above; settings: 312 h
Summary of the method: as §2

[11] = test system: Ipomea hederaceae (IPOHE); assay: as above; settings: Ipomoea hederacea, 312 h
Summary of the method: as §2

[12] = test system: Echinochloa crus-galli (ECHCG); assay: as above; settings: 312 h
Summary of the method: as §2

[13] = Rate 1,000 g/ha, post-emergence spray, evaluated after 13 days (100=total damage to plant; 0=no damage to plant), read-out: Percentage damage caused to weed species, post-emergence, SOLNI
[14] = Rate 1,000 g/ha, post-emergence spray, evaluated after 13 days (100=total damage to plant; 0=no damage to plant), read-out: Percentage damage caused to weed species, post-emergence, ALOMY
[15] = Rate 1,000 g/ha, post-emergence spray, evaluated after 13 days (100=total damage to plant; 0=no damage to plant), read-out: Percentage damage caused to weed species, post-emergence, AMARE
[16] = Rate 1,000 g/ha, post-emergence spray, evaluated after 13 days (100=total damage to plant; 0=no damage to plant), read-out: Percentage damage caused to weed species, post-emergence, SETFA
[17] = Rate 1,000 g/ha, post-emergence spray, evaluated after 13 days (100=total damage to plant; 0=no damage to plant), read-out: Percentage damage caused to weed species, post-emergence, IPOHE
[18] = Rate 1,000 g/ha, post-emergence spray, evaluated after 13 days (100=total damage to plant; 0=no damage to plant), read-out: Percentage damage caused to weed species, post-emergence, ECHCG
[19] = pre-emergence, rate 1,000 g/ha, evaluated after 13 days (100=total damage to plant; 0=no damage), read-out: Percentage damage caused to weed species, SOLNI
[20] = pre-emergence, rate 1,000 g/ha, evaluated after 13 days (100=total damage to plant; 0=no damage), read-out: Percentage damage caused to weed species, ALOMY
[21] = pre-emergence, rate 1,000 g/ha, evaluated after 13 days (100=total damage to plant; 0=no damage), read-out: Percentage damage caused to weed species, AMARE
[22] = pre-emergence, rate 1,000 g/ha, evaluated after 13 days (100=total damage to plant; 0=no damage), read-out: Percentage damage caused to weed species, SETFA
[23] = pre-emergence, rate 1,000 g/ha, evaluated after 13 days (100=total damage to plant; 0=no damage), read-out: Percentage damage caused to weed species, IPOHE
[24] = pre-emergence, rate 1,000 g/ha, evaluated after 13 days (100=total damage to plant; 0=no damage), read-out: Percentage damage caused to weed species, ECHCG
[25] = post-emergence, 1,000 g/ha, evaluated after 13 days (100=total damage; 0=no damage), read-out: Percentage damage caused to weed species, SOLNI
[26] = post-emergence, 1,000 g/ha, evaluated after 13 days (100=total damage; 0=no damage), read-out: Percentage damage caused to weed species, ALOMY
[27] = post-emergence, 1,000 g/ha, evaluated after 13 days (100=total damage; 0=no damage), read-out: Percentage damage caused to weed species, AMARE
[28] = post-emergence, 1,000 g/ha, evaluated after 13 days (100=total damage; 0=no damage), read-out: Percentage damage caused to weed species, SETFA
[29] = post-emergence, 1,000 g/ha, evaluated after 13 days (100=total damage; 0=no damage), read-out: Percentage damage caused to weed species, IPOHE
[30] = post-emergence, 1,000 g/ha, evaluated after 13 days (100=total damage; 0=no damage), read-out: Percentage damage caused to weed species, ECHCG
[31] = pre-emergence, 1,000 g/ha, evaluated after 13 days (100=total damage; 0=no damage), read-out: Percentage damage SOLNI
[32] = pre-emergence, 1,000 g/ha, evaluated after 13 days (100=total damage; 0=no damage), read-out: Percentage damage ALOMY
[33] = pre-emergence, 1,000 g/ha, evaluated after 13 days (100=total damage; 0=no damage), read-out: Percentage damage AMARE
[34] = pre-emergence, 1,000 g/ha, evaluated after 13 days (100=total damage; 0=no damage), read-out: Percentage damage SETFA
[35] = pre-emergence, 1,000 g/ha, evaluated after 13 days (100=total damage; 0=no damage), read-out: Percentage damage IPOHE
[36] = pre-emergence, 1,000 g/ha, evaluated after 13 days (100=total damage; 0=no damage), read-out: Percentage damage ECHCG

SMILES: COC(=O)c1nc(-c2ccc(F)c(C(F)(F)F)c2)nc(NCc2ccco2)c1Cl [Compound 244-48, 5-Chloro-2-(4-fluoro-3-trifluoromethyl-phenyl)-4-(furan-2-ylmethylamino)-6-methoxycarbonyl-pyrimidine]
- pest or weed control at 1000 g/ha [1, 13]: 80%
- pest or weed control at 1000 g/ha [2, 14]: 30%
- pest or weed control at 1000 g/ha [3, 15]: 50%
- pest or weed control at 1000 g/ha [4, 16]: 80%
- pest or weed control at 1000 g/ha [5, 17]: 30%
- pest or weed control at 1000 g/ha [6, 18]: 60%
- pest or weed control at 1000 g/ha [7, 19]: 30%
- pest or weed control at 1000 g/ha [8, 20]: 30%
- pest or weed control at 1000 g/ha [9, 21]: 10%
- pest or weed control at 1000 g/ha [10, 22]: 60%
- pest or weed control at 1000 g/ha [11, 23]: 0%
- pest or weed control at 1000 g/ha [12, 24]: 20%

SMILES: COC(=O)c1nc(C2CC2)nc(NCCNc2ccccc2)c1Cl [Compound 4-260, 5-Chloro-2-cyclopropyl-6-methoxycarbonyl-4-[2-(phenylamino)-ethylamino)-pyrimidine]
- pest or weed control at 1000 g/ha [1, 25]: 80%
- pest or weed control at 1000 g/ha [2, 26]: 20%
- pest or weed control at 1000 g/ha [3, 27]: 100%
- pest or weed control at 1000 g/ha [4, 28]: 60%
- pest or weed control at 1000 g/ha [5, 29]: 100%
- pest or weed control at 1000 g/ha [6, 30]: 40%
- pest or weed control at 1000 g/ha [7, 31]: 90%
- pest or weed control at 1000 g/ha [8, 32]: 10%
- pest or weed control at 1000 g/ha [9, 33]: 100%
- pest or weed control at 1000 g/ha [10, 34]: 20%
- pest or weed control at 1000 g/ha [11, 35]: 90%
- pest or weed control at 1000 g/ha [12, 36]: 20%

SMILES: COC(=O)c1nc(C2CC2)nc(NC(C)COc2ccc(C#N)cc2)c1Cl (stereo not drawn) [Compound 4-269, 5-Chloro-4-[2-(4-cyanophenoxy)-1-methyl-ethylamino]-2-cyclopropyl-6-methoxycarbonyl-pyrimidine]
- pest or weed control at 1000 g/ha [1, 25]: 70%
- pest or weed control at 1000 g/ha [2, 26]: 20%
- pest or weed control at 1000 g/ha [3, 27]: 100%
- pest or weed control at 1000 g/ha [4, 28]: 60%
- pest or weed control at 1000 g/ha [5, 29]: 90%
- pest or weed control at 1000 g/ha [6, 30]: 0%
- pest or weed control at 1000 g/ha [7, 31]: 0%
- pest or weed control at 1000 g/ha [8, 32]: 0%
- pest or weed control at 1000 g/ha [9, 33]: 40%
- pest or weed control at 1000 g/ha [10, 34]: 0%
- pest or weed control at 1000 g/ha [11, 35]: 0%
- pest or weed control at 1000 g/ha [12, 36]: 0%

SMILES: COC(=O)c1nc(-c2ccc(Cl)c(OC)c2)nc(NCc2ccco2)c1Cl [Compound 229-48, 5-Chloro-2-(4-chloro-3-methoxyphenyl)-4-(furan-2-ylmethyl-amino)-6-methoxy-carbonylpyrimidine]
- pest or weed control at 1000 g/ha [1, 13]: 80%
- pest or weed control at 1000 g/ha [2, 14]: 10%
- pest or weed control at 1000 g/ha [3, 15]: 100%
- pest or weed control at 1000 g/ha [4, 16]: 60%
- pest or weed control at 1000 g/ha [5, 17]: 30%
- pest or weed control at 1000 g/ha [6, 18]: 30%
- pest or weed control at 1000 g/ha [7, 19]: 90%
- pest or weed control at 1000 g/ha [8, 20]: 10%
- pest or weed control at 1000 g/ha [9, 21]: 100%
- pest or weed control at 1000 g/ha [10, 22]: 30%
- pest or weed control at 1000 g/ha [11, 23]: 0%
- pest or weed control at 1000 g/ha [12, 24]: 0%

SMILES: COC(=O)c1nc(C2CC2)nc(NCCCN2CCCCC2C)c1Cl (stereo not drawn) [Compound 4-247, 5-Chloro-2-cyclopropyl-6-methoxycarbonyl-4-[3-(2-methyl-piperidin-1-yl)-propylamino]-pyrimidine]
- pest or weed control at 1000 g/ha [1, 25]: 50%
- pest or weed control at 1000 g/ha [2, 26]: 10%
- pest or weed control at 1000 g/ha [3, 27]: 100%
- pest or weed control at 1000 g/ha [4, 28]: 20%
- pest or weed control at 1000 g/ha [5, 29]: 50%
- pest or weed control at 1000 g/ha [6, 30]: 20%
- pest or weed control at 1000 g/ha [7, 31]: 70%
- pest or weed control at 1000 g/ha [8, 32]: 10%
- pest or weed control at 1000 g/ha [9, 33]: 30%
- pest or weed control at 1000 g/ha [10, 34]: 10%
- pest or weed control at 1000 g/ha [11, 35]: 20%
- pest or weed control at 1000 g/ha [12, 36]: 10%

SMILES: C=Cc1c(NCc2ccco2)nc(-c2ccc(Cl)c(OC)c2F)nc1C(=O)OC [Compound 139-125, 2-(4-Chloro-2-fluoro-3-methoxyphenyl)-5-ethenyl-4-(furan-2-ylmethylamino)-6-methoxycarbonyl-pyrimidine]
- pest or weed control at 1000 g/ha [1, 13]: 90%
- pest or weed control at 1000 g/ha [2, 14]: 80%
- pest or weed control at 1000 g/ha [3, 15]: 100%
- pest or weed control at 1000 g/ha [4, 16]: 90%
- pest or weed control at 1000 g/ha [5, 17]: 80%
- pest or weed control at 1000 g/ha [6, 18]: 80%
- pest or weed control at 1000 g/ha [7, 19]: 100%
- pest or weed control at 1000 g/ha [8, 20]: 70%
- pest or weed control at 1000 g/ha [9, 21]: 100%
- pest or weed control at 1000 g/ha [10, 22]: 80%
- pest or weed control at 1000 g/ha [11, 23]: 90%
- pest or weed control at 1000 g/ha [12, 24]: 80%

SMILES: COC(=O)c1nc(C2CC2)nc(N[C@@H](Cc2ccc(O)cc2)C(=O)OC)c1Cl [4-287 (S), 5-Chloro-2-cyclopropyl-4-[(1S)-2-(4-hydroxyphenyl)-1-methoxycarbonyl-ethylamino]-6-methoxycarbonyl-pyrimidine]
- pest or weed control at 1000 g/ha [1, 25]: 80%
- pest or weed control at 1000 g/ha [2, 26]: 20%
- pest or weed control at 1000 g/ha [3, 27]: 100%
- pest or weed control at 1000 g/ha [4, 28]: 40%
- pest or weed control at 1000 g/ha [5, 29]: 70%
- pest or weed control at 1000 g/ha [6, 30]: 60%
- pest or weed control at 1000 g/ha [7, 31]: 80%
- pest or weed control at 1000 g/ha [8, 32]: 20%
- pest or weed control at 1000 g/ha [9, 33]: 80%
- pest or weed control at 1000 g/ha [10, 34]: 20%
- pest or weed control at 1000 g/ha [11, 35]: 80%
- pest or weed control at 1000 g/ha [12, 36]: 10%

SMILES: COC(=O)c1nc(-c2ccc(Cl)c(F)c2F)nc(NCc2ccco2)c1Cl [Compound 225-48, 5-Chloro-2-(4-chloro-2,3-difluorophenyl)-4-(furan-2-ylmethyl-amino)-6-methoxy-carbonylpyrimidine]
- pest or weed control at 1000 g/ha [1, 13]: 90%
- pest or weed control at 1000 g/ha [2, 14]: 60%
- pest or weed control at 1000 g/ha [3, 15]: 100%
- pest or weed control at 1000 g/ha [4, 16]: 80%
- pest or weed control at 1000 g/ha [5, 17]: 90%
- pest or weed control at 1000 g/ha [6, 18]: 60%
- pest or weed control at 1000 g/ha [7, 19]: 90%
- pest or weed control at 1000 g/ha [8, 20]: 60%
- pest or weed control at 1000 g/ha [9, 21]: 100%
- pest or weed control at 1000 g/ha [10, 22]: 80%
- pest or weed control at 1000 g/ha [11, 23]: 70%
- pest or weed control at 1000 g/ha [12, 24]: 30%
